# Experimental data from ChEMBL document CHEMBL1201862, “PubChem BioAssay data set” (2004).
#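 Following 48 hours of exposure in 96-well plates, responses at five concentrations were used to interpolate endpoints linearly. The concentration for 50% growth inhibition is given as GI50.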 The source made the active and inactive calls. No stated cut-off is given here; in the data, active = GI50 up to about 1.1 µM and inactive = higher.
# Experiments:
# Test in all cases: NCI-60 cell line screen, 48 h
# EKVX = tested on: EKVX
# KM12 = tested on: KM12
# NCI-H23 = tested on: NCI-H23
# SF-295 = tested on: SF-295
# SR = tested on: SR
# LOX IMVI = tested on: LOX IMVI
# MOLT-4 = tested on: MOLT-4
# 786-0 = tested on: 786-0
# SN12C = tested on: SN12C
# SF-539 = tested on: SF-539
# SW-620 = tested on: SW-620
# K562 = tested on: K562
# HL-60 = tested on: HL-60
# HT-29 = tested on: HT-29
# TK-10 = tested on: TK-10
# SK-MEL-28 = tested on: SK-MEL-28
# IGROV-1 = tested on: IGROV-1
# A498 = tested on: A498
# MDA-N = tested on: MDA-N
# RPMI-8226 = tested on: RPMI-8226
# HCT-15 = tested on: HCT-15
# ACHN = tested on: ACHN
# NCI/ADR-RES = tested on: NCI/ADR-RES
# Hs-578T = tested on: Hs-578T
# SK-MEL-5 = tested on: SK-MEL-5
# OVCAR-8 = tested on: OVCAR-8
# COLO 205 = tested on: COLO 205
# HCT-116 = tested on: HCT-116
# PC-3 = tested on: PC-3
# SF-268 = tested on: SF-268
# SNB-75 = tested on: SNB-75
# DU-145 = tested on: DU-145
# OVCAR-4 = tested on: OVCAR-4
# HCC 2998 = tested on: HCC 2998
# UO-31 = tested on: UO-31
# SK-MEL-2 = tested on: SK-MEL-2
# HOP-62 = tested on: HOP-62
# MDA-MB-231 = tested on: MDA-MB-231
# NCI-H460 = tested on: NCI-H460
# MCF7 = tested on: MCF7
# RXF 393 = tested on: RXF 393
# CCRF-CEM = tested on: CCRF-CEM
# NCI-H522 = tested on: NCI-H522
# BT-549 = tested on: BT-549
# MDA-MB-435 = tested on: MDA-MB-435
# UACC-257 = tested on: UACC-257
# CAKI-1 = tested on: CAKI-1
# NCI-H226 = tested on: NCI-H226
# U-251 = tested on: U-251
# OVCAR-5 = tested on: OVCAR-5
# Malme-3M = tested on: Malme-3M
# HOP-92 = tested on: HOP-92
# OVCAR-3 = tested on: OVCAR-3
# A549 = tested on: A549
# T47D = tested on: T47D
# UACC-62 = tested on: UACC-62
# M14 = tested on: M14
# SNB-19 = tested on: SNB-19
compound,measurement,setting,value
CNC(=O)OCc1cnc([N+](=O)[O-])n1C,GI50,EKVX,> 100 µM (inactive)
same,GI50,KM12,> 100 µM (inactive)
same,GI50,NCI-H23,> 100 µM (inactive)
same,GI50,SF-295,> 100 µM (inactive)
same,GI50,SR,> 100 µM (inactive)
same,GI50,LOX IMVI,> 100 µM (inactive)
same,GI50,MOLT-4,> 100 µM (inactive)
same,GI50,786-0,> 100 µM (inactive)
same,GI50,SN12C,> 100 µM (inactive)
same,GI50,SF-539,> 100 µM (inactive)
same,GI50,SW-620,> 100 µM (inactive)
same,GI50,K562,> 100 µM (inactive)
same,GI50,HL-60,> 100 µM (inactive)
same,GI50,HT-29,> 100 µM (inactive)
same,GI50,TK-10,> 100 µM (inactive)
same,GI50,SK-MEL-28,> 100 µM (inactive)
same,GI50,IGROV-1,> 100 µM (inactive)
same,GI50,A498,> 100 µM (inactive)
same,GI50,MDA-N,> 100 µM (inactive)
same,GI50,RPMI-8226,> 100 µM (inactive)
same,GI50,HCT-15,> 100 µM
same,GI50,ACHN,> 100 µM (inactive)
same,GI50,NCI/ADR-RES,> 100 µM (inactive)
same,GI50,Hs-578T,> 100 µM (inactive)
same,GI50,SK-MEL-5,> 100 µM (inactive)
same,GI50,OVCAR-8,> 100 µM (inactive)
same,GI50,COLO 205,> 100 µM (inactive)
same,GI50,HCT-116,> 100 µM (inactive)
same,GI50,PC-3,> 100 µM (inactive)
same,GI50,SF-268,> 100 µM (inactive)
same,GI50,SNB-75,> 100 µM (inactive)
same,GI50,DU-145,> 100 µM (inactive)
same,GI50,OVCAR-4,> 100 µM (inactive)
same,GI50,HCC 2998,> 100 µM (inactive)
same,GI50,UO-31,> 100 µM (inactive)
same,GI50,SK-MEL-2,> 100 µM (inactive)
same,GI50,HOP-62,> 100 µM (inactive)
same,GI50,MDA-MB-231,> 100 µM (inactive)
same,GI50,NCI-H460,> 100 µM (inactive)
same,GI50,MCF7,> 100 µM (inactive)
same,GI50,RXF 393,> 100 µM (inactive)
same,GI50,CCRF-CEM,> 100 µM (inactive)
same,GI50,NCI-H522,> 100 µM (inactive)
same,GI50,BT-549,> 100 µM (inactive)
same,GI50,MDA-MB-435,> 100 µM (inactive)
same,GI50,UACC-257,> 100 µM (inactive)
same,GI50,CAKI-1,> 100 µM (inactive)
same,GI50,NCI-H226,> 100 µM (inactive)
same,GI50,U-251,> 100 µM (inactive)
same,GI50,OVCAR-5,> 100 µM (inactive)
same,GI50,Malme-3M,> 100 µM (inactive)
same,GI50,HOP-92,> 100 µM (inactive)
same,GI50,OVCAR-3,> 100 µM (inactive)
same,GI50,A549,> 100 µM (inactive)
COc1ccc(CCCNC(=O)Cc2ccccc2CO)cc1OC,GI50,EKVX,> 100 µM (inactive)
same,GI50,KM12,> 100 µM (inactive)
same,GI50,NCI-H23,> 100 µM (inactive)
same,GI50,SR,> 100 µM (inactive)
same,GI50,LOX IMVI,> 100 µM (inactive)
same,GI50,MOLT-4,> 100 µM (inactive)
same,GI50,786-0,> 100 µM (inactive)
same,GI50,SN12C,> 100 µM (inactive)
same,GI50,SW-620,> 100 µM (inactive)
same,GI50,K562,> 100 µM (inactive)
same,GI50,HL-60,> 100 µM (inactive)
same,GI50,HT-29,> 100 µM (inactive)
same,GI50,TK-10,> 100 µM (inactive)
same,GI50,SK-MEL-28,> 100 µM (inactive)
same,GI50,IGROV-1,> 100 µM (inactive)
same,GI50,A498,> 100 µM (inactive)
same,GI50,MDA-N,> 100 µM (inactive)
same,GI50,HCT-15,> 100 µM
same,GI50,ACHN,> 100 µM (inactive)
same,GI50,NCI/ADR-RES,> 100 µM (inactive)
same,GI50,Hs-578T,> 100 µM (inactive)
same,GI50,SK-MEL-5,> 100 µM (inactive)
same,GI50,OVCAR-8,> 100 µM (inactive)
same,GI50,COLO 205,> 100 µM (inactive)
same,GI50,HCT-116,> 100 µM (inactive)
same,GI50,PC-3,> 100 µM (inactive)
same,GI50,SNB-75,> 100 µM (inactive)
same,GI50,DU-145,> 100 µM (inactive)
same,GI50,OVCAR-4,> 100 µM (inactive)
same,GI50,HCC 2998,> 100 µM (inactive)
same,GI50,T47D,> 100 µM (inactive)
same,GI50,UO-31,> 100 µM (inactive)
same,GI50,SK-MEL-2,> 100 µM (inactive)
same,GI50,HOP-62,> 100 µM (inactive)
same,GI50,MDA-MB-231,> 100 µM (inactive)
same,GI50,UACC-62,> 100 µM (inactive)
same,GI50,NCI-H460,> 100 µM (inactive)
same,GI50,CCRF-CEM,> 100 µM (inactive)
same,GI50,BT-549,> 100 µM (inactive)
same,GI50,MDA-MB-435,> 100 µM (inactive)
same,GI50,UACC-257,> 100 µM (inactive)
same,GI50,M14,> 100 µM (inactive)
same,GI50,CAKI-1,> 100 µM (inactive)
same,GI50,NCI-H226,> 100 µM (inactive)
same,GI50,U-251,> 100 µM (inactive)
same,GI50,SNB-19,> 100 µM (inactive)
same,GI50,OVCAR-5,> 100 µM (inactive)
same,GI50,Malme-3M,> 100 µM (inactive)
same,GI50,HOP-92,> 100 µM (inactive)
same,GI50,OVCAR-3,> 100 µM (inactive)
same,GI50,A549,> 100 µM (inactive)
